Here are results for 25 molecules from patent US11731944B2, “SARS-CoV-2 inhibitors for treating coronavirus infections” (priority 2021, dated 2023).

The first assay relates to SARS-CoV-2. In words: In vitro antiviral cell-based assay (live SARS-CoV-2), plaque reduction assay in VeroE6 cells. The following applies: Severe acute respiratory syndrome coronavirus 2, Vero C1008, footnote key printed as IC50 (nM).
For `C[C@](C(=O)NC1CCC(F)(F)CC1)(c1cncnc1)N(C(=O)[C@H](F)Cl)c1ccc(-c2cncs2)cc1` (single isomer, unassigned) [Example 1a], the EC50 (in general, the concentration at which the effect is half-maximal) fell in the range of 100 to 1000 nM.

The next assay addresses SARS-CoV-2 MPRO (Severe acute respiratory syndrome coronavirus 2 (2019-nCoV) (SARS-CoV-2), UniProt P0DTD1). In words: SARS-CoV-2 Mpro enzymatic assay (FRET substrate cleavage). The following applies: C-His6-tagged SARS-CoV-2 MPRO 25 nM, 30 min pre-incubation at RT, 60 min at 30° C., 10 doses from 25 μM; read-out: M pro IC50. The format is biochemical.
With `C[C@](C(=O)NC1CCC(F)(F)CC1)(c1cncnc1)N(C(=O)[C@H](F)Cl)c1ccc(-c2cncs2)cc1` (single isomer, unassigned) [Example 1a], the IC50 (usually the concentration that inhibits the measured activity by half) was < 0.1 µM.

Turning to `C[C@](C(=O)NC1CCOCC1)(c1cncnc1)N(C(=O)[C@H](F)Cl)c1ccc(-c2nccs2)cc1` [Example 101a], the IC50 is < 0.1 µM.

Consider `C[C@](C(=O)NC1CCC(F)(F)CC1)(c1cncc(F)c1)N(C(=O)[C@H](F)Cl)c1ccc(-c2nccs2)cc1` [Example 102a], for which the half-inhibitory concentration (IC50) was < 0.1 µM.

Regarding `C[C@@](C(=O)NC1CCC(F)(F)CC1)(c1cncc(F)c1)N(C(=O)[C@H](F)Cl)c1ccc(-c2nccs2)cc1` [Example 102b], the 50% inhibitory concentration (IC50) lay within 0.1 to 1 µM.

For `C[C@](C(=O)NC1CCOCC1)(c1cncc(F)c1)N(C(=O)[C@H](F)Cl)c1ccc(-c2nccs2)cc1` [Example 103a], the IC50 was < 0.1 µM.

For `C[C@@](C(=O)NC1CCOCC1)(c1cncc(F)c1)N(C(=O)[C@H](F)Cl)c1ccc(-c2nccs2)cc1` [Example 103b], the IC50 was > 10 µM.

As for `C[C@](C(=O)NC1CCC(F)(F)CC1)(c1cccnc1)N(C(=O)[C@H](F)Cl)c1ccc(SC(F)(F)F)cc1` [Example 104a], the half-inhibitory concentration (IC50) was < 0.1 µM.

As to `C[C@@](C(=O)NC1CCC(F)(F)CC1)(c1cccnc1)N(C(=O)[C@H](F)Cl)c1ccc(SC(F)(F)F)cc1` [Example 104b], the IC50 fell in the range of 1 to 10 µM.

Take `C[C@](C(=O)NC1CCOCC1)(c1cccnc1)N(C(=O)[C@H](F)Cl)c1ccc(SC(F)(F)F)cc1` [Example 105a]: the IC50 is < 0.1 µM.

With `C[C@@](C(=O)NC1CCOCC1)(c1cccnc1)N(C(=O)[C@H](F)Cl)c1ccc(SC(F)(F)F)cc1` [Example 105b], the concentration for half-maximal inhibition (IC50) is > 10 µM.

As for `C[C@](C(=O)NC1CCC2(CC1)COC2)(c1cncnc1)N(C(=O)[C@H](F)Cl)c1ccc(OC(F)(F)F)cc1` [Example 107a], the IC50 is < 0.1 µM.

For `C[C@](C(=O)NC1CCOCC1)(c1cncnc1)N(C(=O)[C@H](F)Cl)c1ccc(C(F)(F)C(F)(F)F)cc1` [Example 108a], the IC50 was in the range of 0.1 to 1 µM.

For the molecule `C[C@@](C(=O)NC1CCOCC1)(c1cncnc1)N(C(=O)[C@H](F)Cl)c1ccc(C(F)(F)C(F)(F)F)cc1` [Example 108b], the IC50 is > 10 µM.

Take `C[C@](C(=O)Nc1ccc(Cl)cc1F)(c1cncnc1)N(C(=O)[C@H](F)Cl)c1ccc(OC(F)(F)F)cc1` [Example 110a]: the IC50 was < 0.1 µM.

Turning to `C[C@@](C(=O)Nc1ccc(Cl)cc1F)(c1cncnc1)N(C(=O)[C@H](F)Cl)c1ccc(OC(F)(F)F)cc1` [Example 110b], the 50% inhibitory concentration (IC50) was 1 to 10 µM.

Consider `C[C@](C(=O)NC1CCOCC1)(c1cccnc1)N(C(=O)[C@H](F)Cl)c1ccc(OC(F)(F)Cl)cc1` [Example 111a], for which the IC50 was < 0.1 µM.

Take `C[C@@](C(=O)NC1CCOCC1)(c1cccnc1)N(C(=O)[C@H](F)Cl)c1ccc(OC(F)(F)Cl)cc1` [Example 111b]: the IC50 is > 10 µM.

`C[C@](C(=O)NC1CCC(F)(F)CC1)(c1cncnc1)N(C(=O)[C@H](F)Cl)c1cccc(OC(F)(F)F)c1` [Example 112a]: the IC50 was 0.1 to 1 µM.

Turning to `C[C@@](C(=O)NC1CCC(F)(F)CC1)(c1cncnc1)N(C(=O)[C@H](F)Cl)c1cccc(OC(F)(F)F)c1` [Example 112b], the IC50 was > 10 µM.

Consider `C[C@](C(=O)NC1CCC(F)(F)CC1)(c1cncnc1)N(C(=O)[C@H](F)Cl)c1ccc2c(c1)OC(F)(F)O2` [Example 113a], for which the IC50 was < 0.1 µM.

Turning to `C[C@@](C(=O)NC1CCC(F)(F)CC1)(c1cncnc1)N(C(=O)[C@H](F)Cl)c1ccc2c(c1)OC(F)(F)O2` [Example 113b], the concentration for half-maximal inhibition (IC50) is > 10 µM.

`C[C@](C(=O)NC1CCOCC1)(c1cncnc1)N(C(=O)C(Cl)Cl)c1ccc(OC(F)(F)Cl)cc1` [Example 115a]: the IC50 was < 0.1 µM.

As to `C[C@@](C(=O)NC1CCOCC1)(c1cncnc1)N(C(=O)C(Cl)Cl)c1ccc(OC(F)(F)Cl)cc1` [Example 115b], the IC50 was 1 to 10 µM.

The assay is the same for the next values; noted with them: M pro IC50, C-His6-tagged SARS-CoV-2 MPRO 25 nM, 30 min pre-incubation at RT, 60 min at 30° C., 10 doses from 25 μM.
Regarding `C[C@](C(=O)N[C@@H]1CC[C@H](NC(=O)C(F)(F)F)C1)(c1cncc(F)c1)N(C(=O)[C@H](F)Cl)c1ccc(OC(F)(F)F)cc1` [Example 109a], the IC50 was < 0.1 µM.

As for `C[C@@](C(=O)N[C@@H]1CC[C@H](NC(=O)C(F)(F)F)C1)(c1cncc(F)c1)N(C(=O)[C@H](F)Cl)c1ccc(OC(F)(F)F)cc1` [Example 109b], the IC50 lay in the range of 1 to 10 µM.
